# Reference: patent publication US20210045385A1, “PYRIDAZINONE-SUBSTITUTED KETOXIMES AS HERBICIDES” (FMC Corporation, priority 2018, published 2021)
# What was measured:
# Assay type in all cases: in vivo
# [1] = tested on: Italian ryegrass (Lolium mutiflorum); experiment: Test C preemergence, visual plant response rating
# Description: (§1) Seeds of plant species selected from barnyardgrass (Echinochloa crus-galli), kochia (Bassia scoparia), ragweed (common ragweed, Ambrosia artemisiifolia), Italian ryegrass (Lolium mutiflorum), foxtail, giant (giant foxtail, Setaria faberi), foxtail, green (green foxtail, Setaria viridis), and pigweed (Amaranthus retroflexus) were planted into a blend of loam soil and sand and treated preemergence with a directed soil spray using test chemicals formulated in anon-phytotoxic solvent mixture which included a surfactant.
# (§2) At the same time, plants selected from these weed species and also wheat (Triticum aestivum), corn (Zea mays), blackgrass (Alopecurus myosuroides), and galium (catchweed bedstraw, Galium aparine) were planted in pots containing the same blend of loam soil and sand and treated with post emergence applications of test chemicals formulated in the same manner. Plants ranged in height from 2 to 10 cm and were in the one- to two-leaf stage for the postemergence treatment. Treated plants and untreated controls were maintained in a greenhouse for approximately 10 d, after which time all treated plants were compared to untreated controls and visually evaluated for injury. Plant response ratings, summarized in Table C, are based on a 0 to 100 scale where 0 is no effect and 100 is complete control. A dash (-)response means no test result.
# [2] = tested on: barnyardgrass (Echinochloa crus-galli); experiment: Test C preemergence, visual plant response rating
# Description: as §1, §2
# [3] = tested on: foxtail, giant (giant foxtail, Setaria faberi); experiment: Test C preemergence, visual plant response rating
# Description: as §1, §2
# kochia (Bassia scoparia) [4] = experiment: Test C preemergence, visual plant response rating
# Description: as §1, §2
# [5] = tested on: pigweed (Amaranthus retroflexus); experiment: Test C preemergence, visual plant response rating
# Description: as §1, §2
# [6] = tested on: Italian ryegrass (Lolium mutiflorum); experiment: Test C postemergence, visual plant response rating
# Description: as §1, §2
# [7] = tested on: barnyardgrass (Echinochloa crus-galli); experiment: Test C postemergence, visual plant response rating
# Description: as §1, §2
# [8] = tested on: blackgrass (Alopecurus myosuroides); experiment: Test C postemergence, visual plant response rating
# Description: as §1, §2
# corn (Zea mays) = experiment: Test C postemergence, visual plant response rating
# Description: as §1, §2
# [9] = tested on: foxtail, giant (giant foxtail, Setaria faberi); experiment: Test C postemergence, visual plant response rating
# Description: as §1, §2
# [10] = tested on: galium (catchweed bedstraw, Galium aparine); experiment: Test C postemergence, visual plant response rating
# Description: as §1, §2
# kochia (Bassia scoparia) [11] = experiment: Test C postemergence, visual plant response rating
# Description: as §1, §2
# [12] = tested on: pigweed (Amaranthus retroflexus); experiment: Test C postemergence, visual plant response rating
# Description: as §1, §2
# [13] = tested on: ragweed (common ragweed, Ambrosia artemisiifolia); experiment: Test C postemergence, visual plant response rating
# Description: as §1, §2
# [14] = tested on: wheat (Triticum aestivum); experiment: Test C postemergence, visual plant response rating
# Description: as §1, §2
# [15] = tested on: barnyardgrass (Echinochloa crus-galli); experiment: Test D flooded paddy test, visual plant response rating; conditions: 250 g ai/ha, scale 0 to 100 (0 no effect, 100 complete control), 13 to 15 d
# Description: (§3) Plant species in the flooded paddy test selected from rice (Oryza sativa), sedge umbrella (small-flower umbrella sedge, Cyperus difformis) duck salad (Heteranthera limosa), and barnyardgrass (Echinochloa crus-galli) were grown to the 2-leaf stage for testing. At time of treatment, test pots were flooded to 3 cm above the soil surface, treated by application of test compounds directly to the paddy water, and then maintained at that water depth for the duration of the test. Treated plants and controls were maintained in a greenhouse for 13 to 15 d, after which time all species were compared to controls and visually evaluated. Plant response ratings, summarized in Table D, are based on a scale of 0 to 100 where 0 is no effect and 100 is complete control. A dash (-) response means no test result.
# [16] = tested on: duck salad (Heteranthera limosa); experiment: as above; conditions: 250 g ai/ha, scale 0 to 100 (0 no effect, 100 complete control), 13 to 15 d
# Description: as §3
# rice (Oryza sativa) = experiment: as above; conditions: 250 g ai/ha, scale 0 to 100 (0 no effect, 100 complete control), 13 to 15 d
# Description: as §3
# [17] = tested on: sedge umbrella (small-flower umbrella sedge, Cyperus difformis); experiment: as above; conditions: 250 g ai/ha, scale 0 to 100 (0 no effect, 100 complete control), 13 to 15 d
# Description: as §3
# [18] = Test C, postemergence, 125 g ai/ha
# [19] = Test C, postemergence, 500 g ai/ha
# [20] = Test C, 31 g ai/ha, 0 is no effect, 100 is complete control
smiles,measurement,setting,value
C#CCON=C(c1c(O)c(OC)nn(C)c1=O)c1cccc2ccccc12 (mixture of isomers) [Compound 168],"Ryegrass, Italian plant response rating (0 to 100 scale)",[1]; 125 g ai/ha,20
same,"Ryegrass, Italian plant response rating (0 to 100 scale)",[1]; 500 g ai/ha,90
same,Barnyardgrass plant response rating (0 to 100 scale),[2]; 125 g ai/ha,60
same,Barnyardgrass plant response rating (0 to 100 scale),[2]; 500 g ai/ha,80
same,"Foxtail, Giant plant response rating (0 to 100 scale)",[3]; 125 g ai/ha,80
same,"Foxtail, Giant plant response rating (0 to 100 scale)",[3]; 500 g ai/ha,100
same,Kochia plant response rating (0 to 100 scale),kochia (Bassia scoparia) [4]; 125 g ai/ha,0
same,Kochia plant response rating (0 to 100 scale),kochia (Bassia scoparia) [4]; 500 g ai/ha,10
same,Pigweed plant response rating (0 to 100 scale),[5]; 125 g ai/ha,100
same,Pigweed plant response rating (0 to 100 scale),[5]; 500 g ai/ha,100
same,"Ryegrass, Italian plant response rating (0 to 100 scale)",[6]; [18],40
same,"Ryegrass, Italian plant response rating (0 to 100 scale)",[6]; [19],90
same,Barnyardgrass plant response rating (0 to 100 scale),[7]; [18],40
same,Barnyardgrass plant response rating (0 to 100 scale),[7]; [19],60
same,Blackgrass plant response rating (0 to 100 scale),[8]; [18],20
same,Blackgrass plant response rating (0 to 100 scale),[8]; [19],80
same,Corn plant response rating (0 to 100 scale),corn (Zea mays); [18],0
same,Corn plant response rating (0 to 100 scale),corn (Zea mays); [19],20
same,"Foxtail, Giant plant response rating (0 to 100 scale)",[9]; [18],50
same,"Foxtail, Giant plant response rating (0 to 100 scale)",[9]; [19],90
same,Galium plant response rating (0 to 100 scale),[10]; [18],70
same,Galium plant response rating (0 to 100 scale),[10]; [19],90
same,Kochia plant response rating (0 to 100 scale),kochia (Bassia scoparia) [11]; [18],70
same,Kochia plant response rating (0 to 100 scale),kochia (Bassia scoparia) [11]; [19],80
same,Pigweed plant response rating (0 to 100 scale),[12]; [18],60
same,Pigweed plant response rating (0 to 100 scale),[12]; [19],100
same,Ragweed plant response rating (0 to 100 scale),[13]; [18],60
same,Ragweed plant response rating (0 to 100 scale),[13]; [19],90
same,Wheat plant response rating (0 to 100 scale),[14]; [18],0
same,Wheat plant response rating (0 to 100 scale),[14]; [19],30
same,"Plant response rating, Barnyardgrass (Flood)",[15],0
same,"Plant response rating, Ducksalad (Flood)",[16],0
same,"Plant response rating, Rice (Flood)",rice (Oryza sativa),0
same,"Plant response rating, Sedge, Umbrella (Flood)",[17],0
CCON=C(c1cc(Cl)cc(Br)c1)c1c(O)c(C)nn(C)c1=O [Compound 180],"Ryegrass, Italian plant response rating (0 to 100 scale)",[1]; 125 g ai/ha,100
same,"Ryegrass, Italian plant response rating (0 to 100 scale)",[1]; [20],40
same,Barnyardgrass plant response rating (0 to 100 scale),[2]; 125 g ai/ha,80
same,Barnyardgrass plant response rating (0 to 100 scale),[2]; [20],0
same,"Foxtail, Giant plant response rating (0 to 100 scale)",[3]; 125 g ai/ha,100
same,"Foxtail, Giant plant response rating (0 to 100 scale)",[3]; [20],70
same,Kochia plant response rating (0 to 100 scale),kochia (Bassia scoparia) [4]; 125 g ai/ha,100
same,Kochia plant response rating (0 to 100 scale),kochia (Bassia scoparia) [4]; [20],0
same,Pigweed plant response rating (0 to 100 scale),[5]; 125 g ai/ha,80
same,Pigweed plant response rating (0 to 100 scale),[5]; [20],50
same,"Ryegrass, Italian plant response rating (0 to 100 scale)","[6]; Postemergence, 31 g ai/ha",70
same,"Ryegrass, Italian plant response rating (0 to 100 scale)",[6]; [18],100
same,Barnyardgrass plant response rating (0 to 100 scale),"[7]; Postemergence, 31 g ai/ha",30
same,Barnyardgrass plant response rating (0 to 100 scale),[7]; [18],60
same,Blackgrass plant response rating (0 to 100 scale),"[8]; Postemergence, 31 g ai/ha",0
same,Blackgrass plant response rating (0 to 100 scale),[8]; [18],30
same,Corn plant response rating (0 to 100 scale),"corn (Zea mays); Postemergence, 31 g ai/ha",0
same,Corn plant response rating (0 to 100 scale),corn (Zea mays); [18],20
same,"Foxtail, Giant plant response rating (0 to 100 scale)","[9]; Postemergence, 31 g ai/ha",70
same,"Foxtail, Giant plant response rating (0 to 100 scale)",[9]; [18],90
same,Galium plant response rating (0 to 100 scale),"[10]; Postemergence, 31 g ai/ha",90
same,Galium plant response rating (0 to 100 scale),[10]; [18],100
same,Kochia plant response rating (0 to 100 scale),"kochia (Bassia scoparia) [11]; Postemergence, 31 g ai/ha",80
same,Kochia plant response rating (0 to 100 scale),kochia (Bassia scoparia) [11]; [18],90
same,Pigweed plant response rating (0 to 100 scale),"[12]; Postemergence, 31 g ai/ha",10
same,Pigweed plant response rating (0 to 100 scale),[12]; [18],70
same,Ragweed plant response rating (0 to 100 scale),"[13]; Postemergence, 31 g ai/ha",100
same,Ragweed plant response rating (0 to 100 scale),[13]; [18],100
same,Wheat plant response rating (0 to 100 scale),"[14]; Postemergence, 31 g ai/ha",30
same,Wheat plant response rating (0 to 100 scale),[14]; [18],50
same,"Plant response rating, Barnyardgrass (Flood)",[15],40
same,"Plant response rating, Ducksalad (Flood)",[16],60
same,"Plant response rating, Rice (Flood)",rice (Oryza sativa),0
same,"Plant response rating, Sedge, Umbrella (Flood)",[17],65
